Test results as given in US6355799B1, “Substituted benzene compounds, process for their preparation, and herbicidal and defoliant compositions containing them” (ISK Americas Incorporated, priority 1997, dated 2002).

Legend:
Type in all cases: in vivo
[1] = test system: green foxtail (Setaria viridis, SETVI); assay: Post-emerge test, greenhouse herbicide activity screening; settings: post-emerge, 14 days after application, rating scale 0-100
Outline: (§1)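 Fourteen days after spraying, crop and weed injury was graded visually from 0, no effect, to 100, every plant dead. Test substances were dissolved in acetone and applied at 15–1000 g ai/ha with a flat-fan nozzle. Application was either pre-emergence, one day after sowing, or post-emergence at the 2–3 leaf stage.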

[2] = test system: barnyardgrass (Echinochloa crus-galli, ECHCG); assay: as above; settings: post-emerge, 14 days after application, rating scale 0-100
Outline: as §1

[3] = test system: common ragweed (Ambrosia artemisizfolia L., AMBEL); assay: as above; settings: post-emerge, 14 days after application, rating scale 0-100
Outline: as §1

[4] = test system: velvetleaf (Abutilon theophrasti, ABUTH); assay: as above; settings: post-emerge, 14 days after application, rating scale 0-100
Outline: as §1

[5] = test system: johnsongrass (Sorghum halepense, SORHA); assay: as above; settings: post-emerge, 14 days after application, rating scale 0-100
Outline: as §1

[6] = test system: redroot pigweed (Amaranthus retroflexus, AMARE); assay: as above; settings: post-emerge, 14 days after application, rating scale 0-100
Outline: as §1

[7] = test system: lambsquarters (Chenopodium album, CHEAL); assay: as above; settings: post-emerge, 14 days after application, rating scale 0-100
Outline: as §1

[8] = test system: ivyleaf morningglory (Ipomoea hederacea, IPOHE); assay: as above; settings: post-emerge, 14 days after application, rating scale 0-100
Outline: as §1

[9] = test system: sicklepod (Cassia obtusifolia, CASOB); assay: as above; settings: post-emerge, 14 days after application, rating scale 0-100
Outline: as §1

[10] = test system: large crabgrass (Digitaria sanguinalis, DIGSA); assay: as above; settings: post-emerge, 14 days after application, rating scale 0-100
Outline: as §1

[11] = test system: green foxtail (Setaria viridis, SETVI); assay: Pre-emerge test, greenhouse herbicide activity screening; settings: rated 14 days after application, 0 = no damage, 100 = complete death
Outline: as §1

[12] = test system: barnyardgrass (Echinochloa crus-galli, ECHCG); assay: as above; settings: rated 14 days after application, 0 = no damage, 100 = complete death
Outline: as §1

[13] = test system: velvetleaf (Abutilon theophrasti, ABUTH); assay: as above; settings: rated 14 days after application, 0 = no damage, 100 = complete death
Outline: as §1

[14] = test system: johnsongrass (Sorghum halepense, SORHA); assay: as above; settings: rated 14 days after application, 0 = no damage, 100 = complete death
Outline: as §1

[15] = test system: lambsquarters (Chenopodium album, CHEAL); assay: as above; settings: rated 14 days after application, 0 = no damage, 100 = complete death
Outline: as §1

[16] = test system: ivyleaf morningglory (Ipomoea hederacea, IPOHE); assay: as above; settings: rated 14 days after application, 0 = no damage, 100 = complete death
Outline: as §1

[17] = test system: sicklepod (Cassia obtusifolia, CASOB); assay: as above; settings: rated 14 days after application, 0 = no damage, 100 = complete death
Outline: as §1

[18] = test system: large crabgrass (Digitaria sanguinalis, DIGSA); assay: as above; settings: rated 14 days after application, 0 = no damage, 100 = complete death
Outline: as §1

[19] = test system: upland rice (Oryza sp., var. Tebonnet, RICE); assay: Post-emerge test, crop safety; settings: post-emerge, 14 days after application, rating scale 0-100
Outline: as §1

[20] = test system: field corn (Zea mays L., var. Dekalb 535, CORN); assay: Post-emerge test, crop safety; settings: post-emerge, 14 days after application, rating scale 0-100
Outline: as §1

[21] = test system: redroot pigweed (Amaranthus retroflexus, AMARE); assay: Pre-emerge test, greenhouse herbicide activity screening; settings: rated 14 days after application, 0 = no damage, 100 = complete death
Outline: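 Compounds in acetone were track-sprayed at 15-1000 g ai/ha (187 l/ha) on sandy loam pots: pre-emerge one day after seeding, post-emerge at 2-3 leaf stage with 0.25% v/v non-ionic surfactant. Phytotoxicity was rated 14 days later on a 0 (no damage) to 100 (complete death) scale.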

[22] = test system: upland rice (Oryza sp., var. Tebonnet, RICE); assay: Pre-emerge test, crop safety; settings: rated 14 days after application, 0 = no damage, 100 = complete death
Outline: (§2)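 Visual ratings on a 0-100 scale (0 no damage, 100 all plants dead) were taken at 14 days after treatment. Rates of 15-1000 g ai/ha in acetone, 187 l/ha, were sprayed onto soil one day after planting (pre-emerge) or onto 2-3 leaf plants with 0.25% v/v surfactant (post-emerge).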

[23] = test system: field corn (Zea mays L., var. Dekalb 535, CORN); assay: Pre-emerge test, crop safety; settings: rated 14 days after application, 0 = no damage, 100 = complete death
Outline: as §2

COc1c(Cl)cc(F)c(-n2c(=O)cc(C(F)(F)F)n(C)c2=O)c1NC(=O)c1ccc2c(c1)OCO2 [2-73]
phytotoxicity rating SETVI ([1]; 63 g ai/ha): 50 | phytotoxicity rating SETVI ([1]; 250 g ai/ha): 90 | phytotoxicity rating ECHCG ([2]; 63 g ai/ha): 30 | phytotoxicity rating ECHCG ([2]; 250 g ai/ha): 60 | phytotoxicity rating AMBEL ([3]; 63 g ai/ha): 100 | phytotoxicity rating AMBEL ([3]; 250 g ai/ha): 100 | phytotoxicity rating ABUTH ([4]; 63 g ai/ha): 100 | phytotoxicity rating ABUTH ([4]; 250 g ai/ha): 100 | phytotoxicity rating SORHA ([5]; 63 g ai/ha): 10 | phytotoxicity rating SORHA ([5]; 250 g ai/ha): 50 | phytotoxicity rating AMARE ([6]; 63 g ai/ha): 100 | phytotoxicity rating AMARE ([6]; 250 g ai/ha): 100 | phytotoxicity rating CHEAL ([7]; 63 g ai/ha): 70 | phytotoxicity rating CHEAL ([7]; 250 g ai/ha): 95 | phytotoxicity rating IPOHE ([8]; 63 g ai/ha): 100 | phytotoxicity rating IPOHE ([8]; 250 g ai/ha): 100 | phytotoxicity rating CASOB ([9]; 63 g ai/ha): 60 | phytotoxicity rating CASOB ([9]; 250 g ai/ha): 100 | phytotoxicity rating DIGSA ([10]; 63 g ai/ha): 30 | phytotoxicity rating DIGSA ([10]; 250 g ai/ha): 30 | Pre-emerge Herbicidal Activity, phytotoxicity rating (0-100), SETVI ([11]; 63 g ai/ha): 100 | Pre-emerge Herbicidal Activity, phytotoxicity rating (0-100), SETVI ([11]; 250 g ai/ha): 100 | Pre-emerge Herbicidal Activity, phytotoxicity rating (0-100), ECHCG ([12]; 63 g ai/ha): 90 | Pre-emerge Herbicidal Activity, phytotoxicity rating (0-100), ECHCG ([12]; 250 g ai/ha): 100 | Pre-emerge Herbicidal Activity, phytotoxicity rating (0-100), ABUTH ([13]; 63 g ai/ha): 100 | Pre-emerge Herbicidal Activity, phytotoxicity rating (0-100), ABUTH ([13]; 250 g ai/ha): 100 | Pre-emerge Herbicidal Activity, phytotoxicity rating (0-100), SORHA ([14]; 63 g ai/ha): 75 | Pre-emerge Herbicidal Activity, phytotoxicity rating (0-100), SORHA ([14]; 250 g ai/ha): 100 | Pre-emerge Herbicidal Activity, phytotoxicity rating (0-100), CHEAL ([15]; 63 g ai/ha): 100 | Pre-emerge Herbicidal Activity, phytotoxicity rating (0-100), CHEAL ([15]; 250 g ai/ha): 100 | Pre-emerge Herbicidal Activity, phytotoxicity rating (0-100), IPOHE ([16]; 63 g ai/ha): 90 | Pre-emerge Herbicidal Activity, phytotoxicity rating (0-100), IPOHE ([16]; 250 g ai/ha): 100 | Pre-emerge Herbicidal Activity, phytotoxicity rating (0-100), CASOB ([17]; 63 g ai/ha): 100 | Pre-emerge Herbicidal Activity, phytotoxicity rating (0-100), CASOB ([17]; 250 g ai/ha): 100 | Pre-emerge Herbicidal Activity, phytotoxicity rating (0-100), DIGSA ([18]; 63 g ai/ha): 100 | Pre-emerge Herbicidal Activity, phytotoxicity rating (0-100), DIGSA ([18]; 250 g ai/ha): 100 | phytotoxicity rating RICE ([19]; 63 g ai/ha): 20 | phytotoxicity rating RICE ([19]; 250 g ai/ha): 70 | phytotoxicity rating CORN ([20]; 63 g ai/ha): 25 | phytotoxicity rating CORN ([20]; 250 g ai/ha): 50 | Pre-emerge Herbicidal Activity, phytotoxicity rating (0-100), AMARE ([21]; 63 g ai/ha): 100 | Pre-emerge Herbicidal Activity, phytotoxicity rating (0-100), AMARE ([21]; 250 g ai/ha): 100 | Pre-emerge phytotoxicity rating (0-100), crop damage, RICE ([22]; 63 g ai/ha): 80 | Pre-emerge phytotoxicity rating (0-100), crop damage, RICE ([22]; 250 g ai/ha): 100 | Pre-emerge phytotoxicity rating (0-100), crop damage, CORN ([23]; 63 g ai/ha): 50 | Pre-emerge phytotoxicity rating (0-100), crop damage, CORN ([23]; 250 g ai/ha): 95

COc1c(Cl)cc(F)c(-n2c(=O)cc(C(F)(F)F)n(C)c2=O)c1NC(=O)c1cccc2ccccc12 [2-74]
phytotoxicity rating SETVI ([1]; 63 g ai/ha): 0 | phytotoxicity rating SETVI ([1]; 250 g ai/ha): 20 | phytotoxicity rating ECHCG ([2]; 63 g ai/ha): 0 | phytotoxicity rating ECHCG ([2]; 250 g ai/ha): 0 | phytotoxicity rating AMBEL ([3]; 63 g ai/ha): 70 | phytotoxicity rating AMBEL ([3]; 250 g ai/ha): 95 | phytotoxicity rating ABUTH ([4]; 63 g ai/ha): 100 | phytotoxicity rating ABUTH ([4]; 250 g ai/ha): 100 | phytotoxicity rating SORHA ([5]; 63 g ai/ha): 0 | phytotoxicity rating SORHA ([5]; 250 g ai/ha): 0 | phytotoxicity rating AMARE ([6]; 63 g ai/ha): 95 | phytotoxicity rating AMARE ([6]; 250 g ai/ha): 100 | phytotoxicity rating CHEAL ([7]; 63 g ai/ha): 70 | phytotoxicity rating CHEAL ([7]; 250 g ai/ha): 70 | phytotoxicity rating IPOHE ([8]; 63 g ai/ha): 60 | phytotoxicity rating IPOHE ([8]; 250 g ai/ha): 60 | phytotoxicity rating CASOB ([9]; 63 g ai/ha): 30 | phytotoxicity rating CASOB ([9]; 250 g ai/ha): 70 | phytotoxicity rating DIGSA ([10]; 63 g ai/ha): 0 | phytotoxicity rating DIGSA ([10]; 250 g ai/ha): 0 | Pre-emerge Herbicidal Activity, phytotoxicity rating (0-100), SETVI ([11]; 63 g ai/ha): 70 | Pre-emerge Herbicidal Activity, phytotoxicity rating (0-100), SETVI ([11]; 250 g ai/ha): 100 | Pre-emerge Herbicidal Activity, phytotoxicity rating (0-100), ECHCG ([12]; 63 g ai/ha): 0 | Pre-emerge Herbicidal Activity, phytotoxicity rating (0-100), ECHCG ([12]; 250 g ai/ha): 100 | Pre-emerge Herbicidal Activity, phytotoxicity rating (0-100), ABUTH ([13]; 63 g ai/ha): 100 | Pre-emerge Herbicidal Activity, phytotoxicity rating (0-100), ABUTH ([13]; 250 g ai/ha): 100 | Pre-emerge Herbicidal Activity, phytotoxicity rating (0-100), SORHA ([14]; 63 g ai/ha): 0 | Pre-emerge Herbicidal Activity, phytotoxicity rating (0-100), SORHA ([14]; 250 g ai/ha): 100 | Pre-emerge Herbicidal Activity, phytotoxicity rating (0-100), CHEAL ([15]; 63 g ai/ha): 100 | Pre-emerge Herbicidal Activity, phytotoxicity rating (0-100), CHEAL ([15]; 250 g ai/ha): 100 | Pre-emerge Herbicidal Activity, phytotoxicity rating (0-100), IPOHE ([16]; 63 g ai/ha): 0 | Pre-emerge Herbicidal Activity, phytotoxicity rating (0-100), IPOHE ([16]; 250 g ai/ha): 50 | Pre-emerge Herbicidal Activity, phytotoxicity rating (0-100), CASOB ([17]; 63 g ai/ha): 40 | Pre-emerge Herbicidal Activity, phytotoxicity rating (0-100), CASOB ([17]; 250 g ai/ha): 70 | Pre-emerge Herbicidal Activity, phytotoxicity rating (0-100), DIGSA ([18]; 63 g ai/ha): 20 | Pre-emerge Herbicidal Activity, phytotoxicity rating (0-100), DIGSA ([18]; 250 g ai/ha): 100 | phytotoxicity rating RICE ([19]; 63 g ai/ha): 25 | phytotoxicity rating RICE ([19]; 250 g ai/ha): 50 | phytotoxicity rating CORN ([20]; 63 g ai/ha): 0 | phytotoxicity rating CORN ([20]; 250 g ai/ha): 15 | Pre-emerge Herbicidal Activity, phytotoxicity rating (0-100), AMARE ([21]; 63 g ai/ha): 100 | Pre-emerge Herbicidal Activity, phytotoxicity rating (0-100), AMARE ([21]; 250 g ai/ha): 100 | Pre-emerge phytotoxicity rating (0-100), crop damage, RICE ([22]; 63 g ai/ha): 30 | Pre-emerge phytotoxicity rating (0-100), crop damage, RICE ([22]; 250 g ai/ha): 60 | Pre-emerge phytotoxicity rating (0-100), crop damage, CORN ([23]; 63 g ai/ha): 0 | Pre-emerge phytotoxicity rating (0-100), crop damage, CORN ([23]; 250 g ai/ha): 15
